From PMC6943582 (2019)

Tests used:
[1] = system: NEO2A (RNA, aptamer) CACUGCAGUCCGAAAAGGGCCAGUG; assay: ITC; conditions: 13.5 mM NaCl, 150 mM KCl, 0.12 mM MgCl2, 0.1 mM MgSO4, 120 nM CaCl2, Buffer A: 20 mM HEPES, pH 7.3, 25 °C
[2] = system: NEO2AΔA (RNA, aptamer) CACUGCAGUCCGAAAGGGCCAGUG; assay: ITC; conditions: 13.5 mM NaCl, 150 mM KCl, 0.12 mM MgCl2, 0.1 mM MgSO4, 120 nM CaCl2; Buffer A: 20 mM HEPES, phosphate, pH 7.3, 25 °C
[3] = system: 2AP16NEO2A (RNA, aptamer, 2-aminopurine at 16) CACUGCAGUCCGAAAAGGGCCAGUG; assay: ITC; conditions: 13.5 mM NaCl, 150 mM KCl, 0.12 mM MgCl2, 0.1 mM MgSO4, 120 nM CaCl2; Buffer A, pH 7.3, 25 °C; affinity 40% of unsubstituted NEO2A
[4] = system: 2AP13NEO2A (RNA, aptamer, 2-aminopurine at 13) CACUGCAGUCCGAAAAGGGCCAGUG; assay: 2-aminopurine fluorescence; conditions: buffer A or F; 10 μM ligand, 1 μM RNA; fluorescence increase
[5] = system: 2AP7NEO2A (RNA, aptamer, 2-aminopurine at 7) CACUGCAGUCCGAAAAGGGCCAGUG; assay: 2-aminopurine fluorescence; conditions: buffer A or F; 10 μM ligand, 1 μM RNA; fluorescence increase
[6] = system: 2AP14NEO2A (RNA, aptamer, 2-aminopurine at 14) CACUGCAGUCCGAAAAGGGCCAGUG; assay: 2-aminopurine fluorescence; conditions: buffer A or F; 10 μM ligand, 1 μM RNA; fluorescence decrease

Kd ([1]; phosphate)	Kd [2]	Structure (SMILES)	other results
> 100 µM	–	CCN[C@@H]1C[C@H](N)[C@@H](O[C@H]2OC(CN)=CC[C@H]2N)[C@H](O)[C@H]1O[C@H]1OC[C@](C)(O)[C@H](NC)[C@H]1O	–
4.9 ± 1.2 µM	4.9 ± 1.0 µM	CN[C@@H]1[C@@H](O)[C@@H](O[C@@H]2[C@@H](O)[C@H](O[C@H]3OC(CN)=CC[C@H]3N)[C@@H](N)C[C@H]2N)OC[C@]1(C)O	–
> 100 µM	–	CN[C@@H]1[C@@H](O)[C@@H](O[C@@H]2[C@@H](O)[C@H](O[C@H]3O[C@H]([C@@H](C)O)[C@@H](O)[C@H](O)[C@H]3N)[C@@H](N)C[C@H]2N)OC[C@]1(C)O	–
> 100 µM	–	NCC[C@H](O)C(=O)N[C@@H]1C[C@H](N)[C@@H](O[C@H]2O[C@H](CN)[C@@H](O)[C@H](O)[C@H]2O)[C@H](O)[C@H]1O[C@H]1O[C@H](CO)[C@@H](O)[C@H](N)[C@H]1O	–
0.25 ± 0.050 µM	0.17 ± 0.031 µM	NC[C@@H]1O[C@H](O[C@H]2[C@@H](O)[C@H](O[C@@H]3[C@@H](O)[C@H](N)C[C@H](N)[C@H]3O[C@H]3O[C@H](CN)[C@@H](O)[C@H](O)[C@H]3N)O[C@@H]2CO)[C@H](N)[C@@H](O)[C@@H]1O	binding [3]: yes; binding [4]: yes; binding [5]: yes; binding [6]: yes
1.6 ± 0.26 µM	–	NC[C@@H]1O[C@H](O[C@H]2[C@@H](O)[C@H](O[C@@H]3[C@@H](O)[C@H](N)C[C@H](N)[C@H]3O[C@H]3O[C@H](CO)[C@@H](O)[C@H](O)[C@H]3N)O[C@@H]2CO)[C@H](N)[C@@H](O)[C@@H]1O	binding [2]: no
0.40 ± 0.051 µM	6.3 ± 0.84 µM	NC[C@H]1O[C@H](O[C@H]2[C@H](O)[C@@H](O[C@H]3O[C@H](CO)[C@@H](O)[C@H](N)[C@H]3O)[C@H](N)C[C@@H]2N)[C@H](N)C[C@@H]1O	–
0.25 ± 0.073 µM	–	NC[C@H]1O[C@H](O[C@H]2[C@H](O)[C@@H](O[C@H]3O[C@H](CO)[C@@H](O)[C@H](N)[C@H]3O)[C@H](N)C[C@@H]2N)[C@H](N)[C@@H](O)[C@@H]1O	–
26 ± 3.0 µM	–	NC[C@H]1O[C@H](O[C@H]2[C@H](O)[C@@H](O[C@H]3O[C@H](CO)[C@@H](O)[C@H](N)[C@H]3O)[C@H](N)C[C@@H]2N)[C@H](O)[C@@H](O)[C@@H]1O	–
–	2.3 ± 0.0015 µM	NC[C@H]1O[C@H](O[C@H]2[C@H](O[C@@H]3O[C@H](CO)[C@@H](O)[C@H]3O)[C@@H](O)[C@H](N)C[C@@H]2N)[C@H](N)[C@@H](O)[C@@H]1O	Kd ([1]; Table S4 prints 0.4 ± 0.075): 0.28 ± 0.066 µM
